Patent US7985773B2 (American Sterilizer Company, priority 2004, dated 2011)
Several values for one entry are separate records, joined by “and”; a condition that tells them apart may be missing. Equal entries are not always repeated.

System: Serratia marcescens ATCC 14756
Test: Residual activity testing procedure on pigskin
Type: cell-based
Conditions: for Average Log Reduction: average of two series; for log reduction values and antimicrobial activity (in words): compositions of Table V, additive at 0.5 parts per 100 parts; for Log Value: log of colony forming units remaining; for Log Value / Log Reduction: single series; for antimicrobial activity (in words): additives of Table II in the Table I base; for antimicrobial activity (in words) / Average Series: FIG. 1; for Average Series: average log reduction of all four series
Procedure: The gram negative organism was grown for approximately 24 hours at 30° C. and then suspended in Butterfields Buffer to a count of 1×10^8. The pigskins were prepared according to the following standard of procedure. Pigskin hides are collected on the date of slaughter and processed on the same day by removing adipose tissue and thoroughly cleaning the hide. Both of these processes are accomplished by spraying both sides of the pig hide with a high pressure washer. No soap or detergents are used at any time during the processing of pig hides for laboratory use. After cleaning and de-fatting, pigskins are placed in water and frozen at the farm from which they were harvested. When required for laboratory testing, a representative procures the hides and thaws them for laboratory manipulation. In the laboratory, these hides are cut into manageable pieces with a scalpel and coarse hair removed with animal grooming clippers. Disposable razors are further employed to create a smooth surface without negatively affecting the skin surface. These pieces are then sterilized by Gamma irradiation and kept frozen until use in a study. Testing circles were then punched out of the pigskins and glued to a phenolic cap. The testing samples were placed in a 30° C. oven to equilibrate for at least 20 minutes. Each skin was treated with 150 μl of test product and rubbed for 30 seconds as a pair, skin to skin. The skins were allowed to dry for 30 seconds and then the test product was reapplied four times in the same manner. The skins were allowed to dry in a slightly opened hood for 15 minutes. After drying the skins were inoculated with 31 μl of the Serratia marcescens inoculum, as prepared above, rubbed for 15 seconds, and sampled after three minutes. To sample, a sterile 3.5 cm diameter cylinder is placed, lip side down, over the pigskin on the cap. Enough pressure is applied to the cylinder to prevent any leakage upon the addition of an appropriate volume of liquid sampling solution to the cylinder. The skin is then debrided, using a sterile policeman, for 30 seconds by rubbing the surface of the skin with the flat edge of the policeman with enough pressure to remove any microorganisms that might be on the surface. Two mL of the sampling solution are removed using a sterile pipet and are utilized for preparing serial dilutions and aerobic plate counts to establish the number of Colony Forming Units remaining.

[1] = additive at 0.5 parts by weight per 100 parts total composition in the Table I base, FIG. 2
[2] = additive at 0.5 parts by weight per 100 parts total composition in the Table I base
[3] = additive at the active % listed in Table III in the Table I base
[4] = additive at the active % listed in Table III in the Table I base, pigskin residual activity

Compound | Average Log Reduction [1] | Log Value [2] | Log Reduction [2] | Average Series [3] | further results
CCCCCCCCCCCCCCCCCCCCCC[N+](C)(C)Cc1ccccc1.[Cl-] [Behenalkonium chloride, Behenalkonium Chloride] | 4.41 | 1.60 and 1.78 | 4.50 and 4.32 |  | log reduction values and antimicrobial activity (in words): excellent log reduction values
CCCCCCCCCCCCCCCCCCCCCC[N+](C)(C)C.[Cl-] [Behentrimonium chloride] | 0.33 | 5.78 and 5.76 | 0.32 and 0.34 |  | 
CCCCCCCCCCCCCCCCCCCCCC[N+](C)(C)C.COS(=O)(=O)[O-] [Behentrimonium methosulfate] | 5.25 |  |  | 5.39 | antimicrobial activity (in words): enhanced antimicrobial activity; log reduction values and antimicrobial activity (in words): excellent log reduction values
CC(C)(C)CC(C)(C)c1ccc(OCCOCC[N+](C)(C)Cc2ccccc2)cc1 [Benzethonium Chloride, Benzethonium chloride] |  |  |  | 0.17 | 
CCCCCCCCCCCCCCCC[N+](C)(C)C.[Cl-] [Cetrimonium chloride] | 1.24 | 4.87 and 4.85 | 1.23 and 1.25 |  | 
C[N+](C)(C)CCCNC(=O)C=Cc1ccccc1.[Cl-] [Cinnamidopropyl trimethylammonium chloride] | 0.05 | 5.98 and 6.12 | 0.12 and −0.02 |  | 
CCCCCCCCCC(=O)OCC(O)CO (stereo not shown) [Glyceryl caprate] |  | 5.17 and 5.19 |  |  | 
CCCCCCCCCCCC(=O)OCC(O)CO (stereo not shown) [Glyceryl monolaurate] |  |  |  | −0.21 | 
CCCCCCCCCCCCCCCCCCCCCC(=O)NCCC[N+](C)(C)CCO.[Cl-] [Hydroxyethyl behenamidopropyldimonium chloride] | 0.63 |  |  |  | 
COC(=O)c1ccc(O)cc1 [Methyl paraben] |  |  |  | 0.03 | 
CCCCCCCC/C=C\CCCCCCCC[N+](C)(C)Cc1ccccc1.[Cl-] [Olealkonium chloride, Olealkonium Chloride] | 0.31 | 5.76 and 5.81 | 0.34 and 0.29 |  | 
Cc1cc(O)cc(C)c1Cl [PCMX] |  |  |  | 0.16 | Average Log Reduction [4]: 0.06 and 0.26
OCCOc1ccccc1 [Phenoxyethanol, Phenoxyethanol (ethylene glycol phenyl ether)] |  |  |  | 3.39 | antimicrobial activity (in words): enhanced antimicrobial activity
CCCOC(=O)c1ccc(O)cc1 [Propyl paraben] |  |  |  | 0.40 | 
CCCCCCCCCCCCCCCCCC[N+](C)(C)Cc1ccccc1.[Cl-] [Stearalkonium chloride] | 0.25 | 5.93 and 5.77 | 0.17 and 0.33 |  | 
CC(O)C(=O)O.CCCCCCCCCCCCCCCCCC(=O)NCCCN(C)C [Stearamidopropyl dimethylamine lactate] |  | 6.22 and 6.05 |  |  | 
Oc1cc(Cl)ccc1Oc1ccc(Cl)cc1Cl [Triclosan] |  |  |  | −0.04 | 
Babbassuamidopropalkonium Chloride | 0.35 | 5.82 and 5.68 | 0.28 and 0.42 |  | 
Cocoamidopropyl PG dimonium chloride |  |  |  | −0.04 | Average Log Reduction [4]: −0.13 and 0.04
IPEG-3 Dioleylamidoethylmonium methosulfate | 0.27 | 5.84 and 5.81 | 0.26 and 0.29 |  | 
Isostearyamidopropyl morpholine lactate | −0.09 | 6.17 and 6.20 | −0.07 and −0.10 |  | 
Quaternium 26 | −0.07 | 6.20 and 6.13 | −0.11 and −0.03 |  | 
Sodium Coco PG-Dimonium chloride phosphate | 0.40 | 5.69 and 5.71 | 0.41 and 0.39 |  | 
